Data on 16 molecules can be found in patent publication US12479794B2, “Acetophenone oxime compound and application thereof” (Medshine Discovery Inc., priority 2020, dated 2025).

pEC50: −log10 of the molar value. Structures can show the parent of a compound that is named as a salt. Where two headings read alike, the source gives them in different places.

The target in one data set is T1, S1P1 (Homo sapiens, UniProt P21453).
T1 construct: host or cells: U2OS
Description: In vitro agonistic activity on S1P1, U2OS-EDG1 cells, LiveBLAzer FRET B/G. It is filed as cell-based. The conditions noted are these: for Emax: % Effect. How it is done: Assay Example 1: In Vitro Evaluation of the Agonistic Activity of the Compounds of the Present Disclosure on S1P1
Object of the assay: To detect the agonistic activity of compounds on S1P1
• 1. Cells U2OS-EDG1 (Batch No.: Invitrogen-K1520) were taken out of a liquid nitrogen tank and placed in a 37° C. water bath to thaw quickly; • 2. The cell suspension was aspirated into a 15 ml centrifuge tube, resuspended in 5 ml of preheated medium, and centrifuged at 1000 rpm for 5 min; • 3. The supernatant was discarded. The cells were resuspended in 10 ml of medium, transferred into a T75 culture flask, and cultivated in an incubator with 5% CO2 at 37° C. II. Agonist Assay • 1. The compounds were diluted to working concentrations, and serially diluted 3-fold by Echo 555 (manufacturer: Labcyte) to obtain 10 concentrations; 200 nL of each concentration of the compound was transferred to a cell plate and centrifuged at 1000 rpm for 15 seconds; • 2. Culture medium was aspirated from the culture flask; 4 mL of Dulbecco's phosphate buffer (DPBS, supplier: Coring, item No.: 21-031-CVR, batch No.: 03318006) was added, and the residual serum was washed away; 2 mL of trypsin was added; The mixture was incubated in an incubator at 37° C. for 2 min, and the cells were digested; 10 mL of seeding medium was added to resuspend the cells; 0.6 mL of cell suspension was taken out and counted; • 3. The density of cells was adjusted to 1.88E+05 cells/mL using seeding medium, with 40 μL per well (7500\well); 40 μL of FreeStyle™ Expression medium was added around the cell plate; The plate was let stand at room temperature for 15 min and incubated at 37° C. with 5% CO2 for 20 hours. III. Signal Detection • 1. LiveBLAzer™-FRET B/G Substrate (CCF4-AM) assay reagents were formulated according to the instructions; • 2. 8 μL of 6×Substrate Mixture was added to each well of the cell plate; The plate was centrifuged at 1000 rpm for 15 seconds, covered with a film, and incubated at 23° C. for 2 hours; The cell plate was subjected to Envision […] detection. IV. Data Analysis • 1. The raw data were converted into % Effect by using an equation, and the EC50 value can be obtained by curve fitting with four parameters [“log(agonist) vs. response—Variable slope” model in GraphPad Prism]; • 2. Calculation formula: Ratio=(460 nm−blank)/(535 nm−blank) % Effect=(SampleRatio−Ave LCRatio)/(Ave HCRatio−Ave LCRatio)×100%

The nature of data set [1]: Pharmacokinetic evaluation in SD rats (iv and oral). It is filed as in vivo, Sprague Dawley rats. The conditions noted are these: male, Sprague-Dawley, rat, plasma; for clearance: read-out: Clearance rate CL; for Vd: read-out: Distribution in tissue Vdss; for bioavailability: read-out: Bioavailability F; for Cmax: read-out: Peak concentration Cmax; for half-life: read-out: Half life T1/2 (PO) (converted). How it is done: Assay Example 2: Pharmacokinetic Evaluation of Compounds in Rats
Object of the assay: To evaluate the in vivo pharmacokinetics of the compounds in SD rats
Sprague Dawley rats (male, 200-300 g, 7-9 weeks old, Shanghai SLAC)
The pharmacokinetic characteristics of the compounds in rodents after intravenous injection and oral administration were assayed according to the standard protocol. In the assay, the candidate compounds were formulated into clear solutions and administered to rats by single intravenous injection and oral administration. The vehicle for intravenous injection and oral administration was DMSO and 10% hydroxypropyl β-cyclodextrin in water (DMSO:10% hydroxypropyl β-cyclodextrin in water=5:95). Whole blood samples were collected within 48 hours, and centrifuged at 3000 g for 15 minutes. The supernatant was separated to give plasma samples. 4 times the volume of acetonitrile solution containing internal standard was added to precipitate protein. The resulting mixture was centrifuged and the supernatant was taken out. An equal volume of water was added and the mixture was centrifuged. The supernatant was taken out, and injected as a sample to quantitatively analyze the plasma drug concentration by LC-MS/MS analysis method. The pharmacokinetic parameters, such as peak concentration, time to peak, clearance rate, half-life, area under drug-time curve, bioavailability, etc., were calculated.

Where [2] appears, read: intravenous, iv 1.0, po 2.0 mg/kg.
The mark [3] stands for this setting: po, 2 mg/kg, iv 1.0, po 2.0 mg/kg, PO, read-out: Area under drug-time curve AUC0-last PO.

T1 sequence (P21453 whole entry): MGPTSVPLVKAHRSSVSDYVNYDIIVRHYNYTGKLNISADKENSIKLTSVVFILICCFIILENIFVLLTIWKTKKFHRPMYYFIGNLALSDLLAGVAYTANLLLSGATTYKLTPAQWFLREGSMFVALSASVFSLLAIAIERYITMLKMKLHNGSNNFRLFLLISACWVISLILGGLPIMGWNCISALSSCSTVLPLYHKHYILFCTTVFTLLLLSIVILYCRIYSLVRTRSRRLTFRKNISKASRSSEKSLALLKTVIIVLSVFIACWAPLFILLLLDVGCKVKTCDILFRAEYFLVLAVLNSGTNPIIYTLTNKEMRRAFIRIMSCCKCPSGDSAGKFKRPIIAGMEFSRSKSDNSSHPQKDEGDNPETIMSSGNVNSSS

Take `C/C(=N\OCc1ccc(C2CCCCC2)c(C(F)(F)F)c1)c1ccc2c(c1)CC(NCCC(=O)O)C2` (stereo not drawn) [Compound 1 trifluoroacetate]: on S1P1, the pEC50 was 7.38 and the Emax was found to be 88.4%.

At S1P1, `C/C(=N\OCc1ccc(OC2CCCC2)c(C(F)(F)F)c1)c1ccc2c(c1)CCC2N1CC(C(=O)O)C1` (stereo not drawn) [Compound 31] had a pEC50 of 7.99 and an Emax of 105%. Also, in data set [1] (setting [2]), the clearance was 2.87 mL/min/kg and the Vd is 0.88 L/kg. In data set [1] (iv 1.0, po 2.0 mg/kg), the bioavailability was found to be 80.9% and the Cmax is 1660 nM. For the same molecule, the AUC(0-t) in data set [1] (setting [3]) stood at 18.6 µM·h. The half-life in data set [1] (po, 2 mg/kg, iv 1.0, po 2.0 mg/kg, PO) was 4.6 h.

As to `C/C(=N\OCc1ccc(C2CCCCC2)c(C(F)(F)F)c1)c1ccc2c(c1)CCC2NCC1(C(=O)O)CC1` (stereo not drawn) [Compound 3 trifluoroacetate], at S1P1, the pEC50 is 8.24 and the Emax was found to be 95%. Further, the AUC(0-t) in data set [1] (iv 1.4, po 2.7 mg/kg, PO, read-out: Area under drug-time curve AUC0-last PO) worked out at 7.05 µM·h. The half-life in data set [1] (iv 1.4, po 2.7 mg/kg, PO) was 11.3 h. In data set [1] (iv 1.4, po 2.7 mg/kg), the bioavailability worked out at 59.3%, the clearance stood at 6.87 mL/min/kg, the Vd was 5.47 L/kg and the Cmax was 393 nM.

Turning to `C/C(=N\OCc1ccc(OC(C)C)c(C(F)(F)F)c1)c1ccc2c(c1)CCC2N(C)CCC(=O)O` (stereo not drawn) [Compound 35], on S1P1, the pEC50 was 8.16 and the Emax stood at 101%.

Take `C/C(=N\OCc1ccc(OC(F)F)c(C(F)(F)F)c1)c1ccc2c(c1)CCC2N1CC(C(=O)O)C1` (stereo not drawn) [Compound 28]: on S1P1, the pEC50 was 7.64 and the Emax is 121%.

On S1P1, `C/C(=N\OCc1ccc(C2CCCCC2)c(C(F)(F)F)c1)c1ccc2c(c1)CCC2NCCC(=O)O` (stereo not drawn) [Compound 20] showed a pEC50 of 8.05 and an Emax of 51%.

At S1P1, `C/C(=N\OCc1ccc(OCC2CC2)c(C(F)(F)F)c1)c1ccc2c(c1)CCC2N(C)CCC(=O)O` (stereo not drawn) [Compound 21] gave a pEC50 of 7.91 and an Emax of 106%. In data set [1] (setting [2]), the clearance turned out to be 5.43 mL/min/kg and the Vd amounted to 2.05 L/kg. For the same molecule, in data set [1] (iv 1.0, po 2.0 mg/kg), the bioavailability is 53.2% and the Cmax was determined as 486 nM. In data set [1] (setting [3]), the AUC(0-t) came out at 6.13 µM·h.

At S1P1, `C/C(=N\OCc1ccc(C2CCCCC2)c(C(F)(F)F)c1)c1ccc2c(c1)CCC2N(C)CCC(=O)O` (stereo not drawn) [Compound 11 trifluoroacetate] showed a pEC50 of 8.30 and an Emax of 97.4%. Also, the AUC(0-t) in data set [1] (iv 1.2, po 2.4 mg/kg, PO, read-out: Area under drug-time curve AUC0-last PO) turned out to be 11.3 µM·h. Also, in data set [1] (iv 1.2, po 2.4 mg/kg, PO), the half-life is 9.08 h. Besides, in data set [1] (iv 1.2, po 2.4 mg/kg), the bioavailability stood at 64%, the clearance was 4.24 mL/min/kg, the Vd worked out at 3.32 L/kg and the Cmax worked out at 605 nM.

`C/C(=N\OCc1ccc(OCC(C)C)c(C(F)(F)F)c1)c1ccc2c(c1)CCC2NCC1(C(=O)O)CC1` (stereo not drawn) [Compound 13 hydrochloride]: at S1P1, the pEC50 was 7.85 and the Emax was determined as 102%.

On S1P1, `C/C(=N\OCc1ccc(OCC(C)C)c(C(F)(F)F)c1)c1ccc2c(c1)CCC2N1CC(C(=O)O)C1` (stereo not drawn) [Compound 29] gave a pEC50 of 8.06 and an Emax of 103%. In data set [1] (setting [2]), the clearance came to 3.68 mL/min/kg and the Vd stood at 2.24 L/kg. In addition, in data set [1] (iv 1.0, po 2.0 mg/kg), the bioavailability worked out at 59.4% and the Cmax is 615 nM. Besides, in data set [1] (setting [3]), the AUC(0-t) was 9.52 µM·h.

On S1P1, `C/C(=N\OCc1ccc(OC(C)C)c(C(F)(F)F)c1)c1ccc2c(c1)CCC2NCC(=O)O` (stereo not drawn) [Compound 10 hydrochloride] showed a pEC50 of 7.24 and an Emax of 84.2%.

On S1P1, `C/C(=N\OCc1ccc(OCC2CC2)c(C(F)(F)F)c1)c1ccc2c(c1)CCC2N1CC(C(=O)O)C1` (stereo not drawn) [Compound 33] gave a pEC50 of 8.53 and an Emax of 110%.

Turning to `C/C(=N\OCc1ccc(OCC2CC2)c(C(F)(F)F)c1)c1ccc2c(c1)CCC2NCC1(C(=O)O)CC1` (stereo not drawn) [Compound 14 hydrochloride], at S1P1, the negative logarithm of the EC50 (pEC50) is 7.56 and the Emax turned out to be 113%.

With `C/C(=N\OCc1ccc(C2CCCCC2)c(C(F)(F)F)c1)c1ccc2c(c1)CCC2N1CC(C(=O)O)C1` (stereo not drawn) [Compound 30], on S1P1, the pEC50 is 7.78 and the Emax came out at 63.4%. In addition, in data set [1] (setting [2]), the clearance came out at 3.93 mL/min/kg and the Vd stood at 4.19 L/kg. Besides, in data set [1] (iv 1.0, po 2.0 mg/kg), the bioavailability is 62.1% and the Cmax was determined as 478 nM. In addition, the AUC(0-t) in data set [1] (setting [3]) is 7.54 µM·h.

In the case of `C/C(=N\OCc1ccc(OCC(C)C)c(C(F)(F)F)c1)c1ccc2c(c1)CCC2N(C)CCC(=O)O` (stereo not drawn) [Compound 22 formate], at S1P1, the pEC50 is 7.72 and the Emax stood at 107%.

On to `CC(=NOCc1ccc(OC(C)C)c(C(F)(F)F)c1)c1ccc2c(c1)CCC2N1CC(C(=O)O)C1` (single isomer, unassigned) [Compound 32A], for which, at S1P1, the pEC50 is 8.42 and the Emax amounted to 101%. For the same molecule, the half-life in data set [1] (intravenous, 1 mg/kg, iv 1.0 mg/kg only (head prints PO)) is 7.5 h. Besides, the AUC(0-t) in data set [1] (iv, 1 mg/kg, iv 1.0 mg/kg, read-out: Area under drug-time curve AUC0-last iv) was determined as 6.84 µM·h. In data set [1] (iv, 1 mg/kg, iv 1.0 mg/kg), the clearance turned out to be 4.5 mL/min/kg and the Vd was 2.78 L/kg.

A word on the pEC50: it is −log10 of the EC50, conventionally taken in molar units. A lower pEC50 goes with a large EC50. In general, Emax refers to the maximal effect, on the per cent scale that the assay sets. The term bioavailability denotes the share of a dose that reaches the circulation, judged against a reference dose that is usually intravenous.
